Measured values published in ChEMBL document CHEMBL4118193, “1,2,3,4,6-Penta-O-galloyl-β-d-glucose suppresses colon cancer through induction of tumor suppressor” (Bioorg Med Chem Lett, 2018).
Calls of active or inactive are those of the source. The calls are words filed in the database; no cut-off is given here.

Legend:
HCT-116 [1] = assay: Induction of apoptosis in human HCT116 cells assessed as cyclin E protein level at 1 uM after 48 hrs by Western blot method relative to beta-actin; format: functional
HCT-116 [2] = assay: Induction of apoptosis in human HCT116 cells assessed as early apoptotic cells at 2.5 uM after 48 hrs by Annexin-V and dead cell assay (reference value: 1.70%); format: functional
HT-29 [3] = assay: Antiproliferative activity against human HT-29 cells at 1 to 10 uM after 48 hrs by CytoTox-96 non-radioactive assay; format: functional, cell-based
HCT-116 [4] = assay: Induction of apoptosis in human HCT116 cells after 48 hrs by Annexin-V and dead cell assay; format: functional, cell-based
HCT-116 [5] = assay: Induction of apoptosis in human HCT116 cells assessed as cleaved caspase-3 protein level at 5 uM after 48 hrs by Western blot method relative to caspase-3; format: functional
HCT-116 [6] = assay: Induction of apoptosis in human HCT116 cells assessed as late apoptotic cells at 10 uM after 48 hrs by Annexin-V and dead cell assay (reference value: 1.45%); format: functional
HT-29 [7] = assay: Induction of apoptosis in human HT-29 cells assessed as caspase-3 protein level at 2.5 uM after 48 hrs by Western blot method relative to beta-actin; format: functional
HT-29 [8] = assay: Induction of apoptosis in human HT-29 cells assessed as cyclin E protein level at 1 uM after 48 hrs by Western blot method relative to beta-actin; format: functional
HCT-116 [9] = assay: Induction of apoptosis in human HCT116 cells assessed as in p53 protein level at 10 uM after 48 hrs by Western blot method relative to beta-actin; format: functional
HT-29 [10] = assay: Induction of apoptosis in human HT-29 cells assessed as Bcl-2 protein level at 2.5 uM after 48 hrs by Western blot method relative to beta-actin; format: functional
HCT-116 [11] = assay: Induction of apoptosis in human HCT116 cells assessed as cyclin E protein level at 2.5 uM after 48 hrs by Western blot method relative to beta-actin; format: functional
HCT-116 [12] = assay: Induction of apoptosis in human HCT116 cells assessed as late apoptotic cells at 1 uM after 48 hrs by Annexin-V and dead cell assay (reference value: 1.45%); format: functional
HT-29 [13] = assay: Induction of apoptosis in human HT-29 cells assessed as CDK2 protein level at 10 uM after 48 hrs by Western blot method relative to beta-actin; format: functional
HCT-116 [14] = assay: Induction of apoptosis in human HCT116 cells assessed as in p53 protein level at 2.5 uM after 48 hrs by Western blot method relative to beta-actin; format: functional
HT-29 [15] = assay: Cell cycle arrest in human HT-29 cells assessed as accumulation at S phase at 2.5 uM after 48 hrs (reference value: 9.7%); format: functional
HT-29 [16] = assay: Cell cycle arrest in human HT-29 cells assessed as accumulation at subG1 phase after 48 hrs; format: functional, cell-based
HCT-116 [17] = assay: Induction of apoptosis in human HCT116 cells assessed as caspase-3 protein level at 2.5 uM after 48 hrs by Western blot method relative to beta-actin; format: functional
HCT-116 [18] = assay: Induction of apoptosis in human HCT116 cells assessed as necrotic cells at 5 uM after 48 hrs by Annexin-V and dead cell assay (reference value: 0.10%); format: functional
HCT-116 [19] = assay: Cell cycle arrest in human HCT116 cells assessed as accumulation at S phase at 2.5 uM after 48 hrs (reference value: 10.9%); format: functional
HCT-116 [20] = assay: Cell cycle arrest in human HCT116 cells assessed as accumulation at G0/G1 phase at 10 uM after 48 hrs (reference value: 38.5%); format: functional
HT-29 [21] = assay: Induction of apoptosis in human HT-29 cells assessed as p21 protein level at 10 uM after 48 hrs by Western blot method relative to beta-actin; format: functional
HCT-116 [22] = assay: Cell cycle arrest in human HCT116 cells assessed as accumulation at G2/M phase at 5 uM after 48 hrs (reference value: 21.5%); format: functional
HT-29 [23] = assay: Induction of apoptosis in human HT-29 cells assessed as Bcl-2 protein level at 10 uM after 48 hrs by Western blot method relative to beta-actin; format: functional
HT-29 [24] = assay: Cell cycle arrest in human HT-29 cells assessed as accumulation at G0/G1 phase at 5 uM after 48 hrs (reference value: 53.9%); format: functional
HCT-116 [25] = assay: Cytotoxicity against human HCT116 cells assessed as reduction in cell viability by MTT assay; format: functional, cell-based
HT-29 [26] = assay: Cell cycle arrest in human HT-29 cells assessed as accumulation at S phase at 10 uM after 48 hrs (reference value: 9.7%); format: functional
HT-29 [27] = assay: Anticlonogenic activity against human HT-29 cells assessed as inhibition of colony formation after 4 to 5 days by crystal violet staining-based assay; format: functional, cell-based
HT-29 [28] = assay: Induction of apoptosis in human HT-29 cells assessed as in p21 protein level at 5 uM after 48 hrs by Western blot method relative to beta-actin; format: functional
HCT-116 [29] = assay: Cell cycle arrest in human HCT116 cells assessed as accumulation at S phase at 5 uM after 48 hrs (reference value: 10.9%); format: functional
HCT-116 [30] = assay: Cytotoxicity against human HCT116 cells at 10 uM after 48 hrs by CytoTox-96 non-radioactive assay; format: functional, cell-based
HT-29 [31] = assay: Induction of apoptosis in human HT-29 cells assessed as cleaved caspase-3 protein level at 10 uM after 48 hrs by Western blot method relative to caspase-3; format: functional
HT-29 [32] = assay: Induction of apoptosis in human HT-29 cells assessed as CDK2 protein level at 2.5 uM after 48 hrs by Western blot method relative to beta-actin; format: functional
HCT-116 [33] = assay: Induction of apoptosis in human HCT116 cells assessed as cyclin E protein level at 5 uM after 48 hrs by Western blot method relative to beta-actin; format: functional
HCT-116 [34] = assay: Cell cycle arrest in human HCT116 cells assessed as accumulation at S phase at 1 uM after 48 hrs (reference value: 10.9%); format: functional
HT-29 [35] = assay: Induction of apoptosis in human HT-29 cells assessed as cyclin E protein level at 10 uM after 48 hrs by Western blot method relative to beta-actin; format: functional
HT-29 [36] = assay: Induction of apoptosis in human HT-29 cells assessed as cleaved caspase-3 protein level at 1 uM after 48 hrs by Western blot method relative to caspase-3; format: functional
HCT-116 [37] = assay: Cell cycle arrest in human HCT116 cells assessed as accumulation at G2/M phase at 1 uM after 48 hrs (reference value: 21.5%); format: functional
HCT-116 [38] = assay: Induction of apoptosis in human HCT116 cells assessed as CDK2 protein level at 5 uM after 48 hrs by Western blot method relative to beta-actin; format: functional
HCT-116 [39] = assay: Cell cycle arrest in human HCT116 cells assessed as accumulation at G0/G1 phase at 5 uM after 48 hrs (reference value: 38.5%); format: functional
HCT-116 [40] = assay: Cell cycle arrest in human HCT116 cells assessed as accumulation at G2/M phase at 10 uM after 48 hrs (reference value: 21.5%); format: functional
HCT-116 [41] = assay: Antiproliferative activity against human HCT116 cells at 1 to 10 uM after 48 hrs by CytoTox-96 non-radioactive assay; format: functional, cell-based
HT-29 [42] = assay: Induction of apoptosis in human HT-29 cells assessed as in p53 protein level at 5 uM after 48 hrs by Western blot method relative to beta-actin; format: functional

## O=C(OC[C@H]1O[C@@H](OC(=O)c2cc(O)c(O)c(O)c2)[C@H](OC(=O)c2cc(O)c(O)c(O)c2)[C@@H](OC(=O)c2cc(O)c(O)c(O)c2)[C@@H]1OC(=O)c1cc(O)c(O)c(O)c1)c1cc(O)c(O)c(O)c1 [PENTAGALLOYL GLUCOSE]
HCT-116 [1]
  fold change (FC): 1.8
HCT-116 [2]
  Activity: 1.35%
HT-29 [3]
  Activity: Active
HCT-116 [4]
  Activity: Dose-dependent effect
HCT-116 [5]
  fold change (FC): 2
HCT-116 [6]
  Activity: 6.1%
HT-29 [7]
  fold change (FC): 4.7
HT-29 [8]
  fold change (FC): 1.2
HCT-116 [9]
  fold change (FC): 8.1
HT-29 [10]
  fold change (FC): 0.3
HCT-116 [11]
  fold change (FC): 1.6
HCT-116 [12]
  Activity: 0.65%
HT-29 [13]
  fold change (FC): 0.8
HCT-116 [14]
  fold change (FC): 2.5
HT-29 [15]
  Activity: 13.4%
HT-29 [16]
  Activity: Dose-dependent effect
HCT-116 [17]
  fold change (FC): 109.9
HCT-116 [18]
  Activity: 0.45%
HCT-116 [19]
  Activity: 9%
HCT-116 [20]
  Activity: 32.2%
HT-29 [21]
  fold change (FC): 0.1
HCT-116 [22]
  Activity: 20.9%
HT-29 [23]
  fold change (FC): 0.3
HT-29 [24]
  Activity: 43.9%
HCT-116 [25]
  IC50: 1610 nM
HT-29 [26]
  Activity: 13.9%
HT-29 [27]
  Activity: Dose-dependent effect
HT-29 [28]
  fold change (FC): 1.8
HCT-116 [29]
  Activity: 17.8%
HCT-116 [30]
  Activity: Active
HT-29 [31]
  fold change (FC): 5.7
HT-29 [32]
  fold change (FC): 0.9
HCT-116 [33]
  fold change (FC): 0.6
HCT-116 [34]
  Activity: 9.8%
HT-29 [35]
  fold change (FC): 0.1
HT-29 [36]
  fold change (FC): 3
HCT-116 [37]
  Activity: 18.1%
HCT-116 [38]
  fold change (FC): 0.4
HCT-116 [39]
  Activity: 17.9%
HCT-116 [40]
  Activity: 18.1%
HCT-116 [41]
  Activity: Active
HT-29 [42]
  fold change (FC): 3
